From ChEMBL document CHEMBL6074649, “An insight into recent developments in imidazole based heterocyclic compounds as anticancer agents: Synthesis, SARs, and mechanism of actions” (Eur J Med Chem, 2024)

How the values were obtained:
HepG2 = assay: Antiproliferative activity against human HepG2 cells; format: functional, cell-based
[1] = Antiproliferative activity against mouse 4T1-Luc cells; format: functional, cell-based
MDA-MB-231 [2] = assay: Antiproliferative activity against human MDA_MB-231 cells; format: functional, cell-based
NCI-H460 = assay: Antiproliferative activity against human NCI-H460 cells assessed as reduction in cell growth by MTT assay; format: functional, cell-based
NCI-H1299 = assay: Antiproliferative activity against human NCI-H1299 cells assessed as reduction in cell growth by MTT assay; format: functional, cell-based
A549 [3] = assay: Antiproliferative activity against A549 cells assessed as reduction in cell growth by MTT assay; format: functional, cell-based; settings: Homo sapiens
MCF7 = assay: Antiproliferative activity against MCF7 cells assessed as reduction in cell growth by MTT assay; format: functional, cell-based; settings: Homo sapiens
[4] = Antiproliferative activity against MRC5 cells assessed as reduction in cell growth by MTT assay; format: toxicity, cell-based; settings: human
HeLa = assay: Antiproliferative activity against human HeLa cells assessed as inhibition of cell growth at 20 uM measured for 48 hrs by MTT assay relative to control; format: functional
HT-29 = assay: Antiproliferative activity against human HT-29 cells assessed as inhibition of cell growth at 20 uM measured for 48 hrs by MTT assay relative to control; format: functional
A549 [5] = assay: Antiproliferative activity against human A549 cells assessed as inhibition of cell growth at 20 uM measured for 48 hrs by MTT assay relative to control; format: functional
HCT-15 = assay: Antiproliferative activity against human HCT-15 cells assessed as inhibition of cell growth at 20 uM measured for 48 hrs by MTT assay relative to control; format: functional
MDA-MB-231 [6] = assay: Antiproliferative activity against human MDA-MB-231 cells assessed as inhibition of cell growth at 20 uM measured for 48 hrs by MTT assay relative to control; format: functional

Question: For CCOC(=O)c1nn(-c2ccc(Cl)cc2)/c(=N\NC2=NC(c3ccccc3)(c3ccccc3)C(=O)N2)s1, which IC50 (HepG2) is on record?
Answer: 0.72 µM

Question: Which results are given for Cc1[nH]c(SCc2ccccc2)nc1Cc1ccccc1?
Answer: IC50 [1]: 8.03 µM; IC50 (MDA-MB-231 [2]): 8.26 µM

Question: Which results are given for CN(C)CCCOc1ccc(-c2nc(-c3ccc(Br)o3)[nH]c2-c2ccc(OCCCN(C)C)cc2)cc1?
Answer: IC50 (NCI-H460): 4.16 µM; IC50 (NCI-H1299): < 0.1 µM; IC50 (A549 [3]): 5.82 µM; IC50 (MCF7): 6.91 µM; IC50 [4]: 8.42 µM

Question: For Cc1[nH]c(SCc2c(F)cccc2F)nc1Cc1ccccc1, which IC50 [1] is on record?
Answer: 6.66 µM

Question: And the IC50 (MDA-MB-231 [2])?
Answer: 9.5 µM

Question: Which inhibition at 20 µM (HeLa) does the source give for CCCCCCCCCCCCn1cnc(C(=O)OCC)c1N here?
Answer: 85%

Question: And the inhibition at 20 µM (HT-29)?
Answer: 82%

Question: What about the inhibition at 20 µM (A549 [5]) of the same molecule?
Answer: 54%

Question: What about the inhibition at 20 µM (HCT-15) of the same molecule?
Answer: 52%

Question: What about the inhibition at 20 µM (MDA-MB-231 [6]) of the same molecule?
Answer: 69%
